Experiments:
[1] = system: INS-1 cells; assay: 2-deoxy-[3H]d-glucose (2-DG) uptake in INS-1 cells; type: cell-based, rat; settings: overnight incubation, lysine 10 mM, arginine 5 mM, HMB 25 μM, 2-DG uptake over 10 min, FIG. 1
Protocol: 2-deoxy-[3H]d-glucose (2-DG) (10 μmol/L) uptake was measured over a 10 minute period under conditions in which the uptake was linear. The uptake of 2-DG was terminated after 10 minutes by rapidly aspirating off the radioactive incubation medium and washing the cells three times in ice-cold phosphate-buffered saline. The radioactivity associated with the cells was determined by cell lysis in 0.5 N NaOH with neutralization by the addition of 0.5 N HCl, followed by liquid scintillation. Aliquots from each well were used to determine the protein concentration using the bicinchoninic acid (BCA) Protein assay.

[2] = system: INS-1 cells; assay: Acute insulin secretion in INS-1 cells (Rat Insulin Enzyme Immunoassay); type: cell-based; settings: glucose 10 mM, arginine 5 mM, lysine 10 mM, HMB 25 μM, 2 hours, FIG. 3
Protocol: Acute insulin secretion was determined by incubating INS-1 cells in the presence of the following effectors: glucose (10 mM), and the effectors arginine (5 mM), lysine (10 mM), HMB (25 μM), and a combination of arginine (5 mM), lysine (10 mM), and HMB (25 μM) for 2 hours. INS-1 cells without effectors were used as a control. Insulin was detected using the Rat Insulin Enzyme Immunoassay (RIEI) Kit (Mercodia, Sweden) according to the manufacturer's instructions.

[3] = system: INS-1 cells; assay: Insulin production by INS-1 cells (24 h effectors, then glucose 2 h; RIEI Kit); type: cell-based, rat; settings: arginine 5 mM, lysine 10 mM, HMB 25 μM for 24 hours, then glucose 10 mM 2 hours, FIG. 4
Protocol: Insulin production by β-cells was evaluated by incubating INS-1 cells in the presence of the following effectors: arginine (5 mM), lysine (10 mM), HMB (25 μM), and a combination of arginine (5 mM), lysine (10 mM), and HMB (25 μM). INS-1 cells without effectors were again used as a control. The cells were incubated with each of the above mentioned effectors for 24 hours. Following the initial 24 hour incubation period with the effectors, the same INS-1 cells were incubated with glucose (10 mM) for 2 hours. Insulin was again detected using the RIEI Kit according to the manufacturer's instructions.

[4] = system: INS-1 cells; assay: MTT cell viability assay in palmitate-treated INS-1 cells; type: cell-based, rat; settings: palmitate 250 μM 24 hours, effectors added 3 hours before (arginine 5 mM, lysine 10 mM, HMB 25 μM), FIG. 6
Protocol: This example describes the use of the rat insulinoma cell line (INS-1) to detect the effect of the combination of lysine, arginine, and HMB on the functional characteristics of β-cells in the presence of free fatty acids (e.g., palmitic acid) using standardized protocols for viability. […] The INS-1 cells were maintained in RPMI 1640 medium with 11.1 mmol/L D-glucose supplemented with 10% fetal bovine serum, 100 units/mL penicillin, 100 μg/mL streptomycin, 10 mmol/L HEPES, 2 mmol/L L-glutamine, 1 mmol/L sodium pyruvate, and 50 μmol/L β-mercaptoethanol at 37° C./5% CO2 in a humidified atmosphere.
The pre-confluent pancreatic cells were left either untreated (Control) or treated with palmitate at a concentration of 250 μM for 24 hours in complete medium (Palmitate). Three hours before incubation with palmitate, four different effectors were added: arginine (5 mM), lysine (10 mM), HMB (25 μM), and the combination of arginine (5 mM), lysine (10 mM), and HMB (25 μM).
The cell groups employed in the study were the following: • (i) Control: INS-1 cells without ingredients. • (ii) Palmitate: INS-1 cells incubated in the presence of 250 μM palmitate. • (iii) Palmitate+ARG: INS-1 cells incubated in the presence of 250 μM palmitate and 5 mM of arginine. • (iv) Palmitate+LYS: INS-1 cells incubated in the presence of 250 μM palmitate and 10 mM of lysine. • (v) Palmitate+HMB: INS-1 cells incubated in the presence of 250 μM palmitate and 25 μM of HMB-free acid. • (vi) Palmitate+MIX: INS-1 cells incubated in the presence of 250 μM palmitate and the combination of 5 mM of arginine, 10 mM of lysine, and 25 μM of HMB.
A cell viability assay was performed by the indirect measurement of cell metabolic activity using MTT (3-(4,5-dimethylthiazol-2-yl)-2,5-diphenyltetrazolium bromide). After 24 hours of incubation with the above effectors, the MTT solution (0.5 mg/ml) was added for 30 minutes. The supernatant was removed, 100 μl MTT solvent was added to each well, and the culture plate was shaken for 10 minutes before the Optical Density (OD) values were recorded at 570 nm.

[5] = system: GLUT2; assay: Expression level of glucose transporter GLUT2 in INS-1 cells; settings: HMB 25 μM, FIG. 2; for increase in the relative intensity of the expression level of GLUT2 compared to control: lysine 10 mM, arginine 5 mM
Protocol: The INS-1 cells were maintained in RPMI 1640 medium with 11.1 mmol/L D-glucose supplemented with 10% fetal bovine serum, 100 units/mL penicillin, 100 μg/mL streptomycin, 10 mmol/L HEPES, 2 mmol/L L-glutamine, 1 mmol/L sodium pyruvate, and 50 μmol/L β-mercaptoethanol at 37° C./5% CO2 in a humidified atmosphere.
The cells were incubated with different effectors overnight. The following cell groups were employed: • (i) Control: INS-1 cells without ingredients. • (ii) ARG: INS-1 cells incubated in the presence of 5 mM of arginine. • (iii) LYS: INS-1 cells incubated in the presence of 10 mM of lysine. • (iv) HMB: INS-1 cells incubated in the presence of 25 μM of HMB-free acid. • (v) MIX: INS-1 cells incubated in the presence of the combination of 5 mM of arginine, 10 mM of lysine, and 25 μM of HMB.

| SMILES | increase in glucose uptake compared to the control [1] | acute response of insulin secretion to extracellular glucose, with respect to the control (in words) [2] | insulin production compared to the control (in words) [3] | cell viability at 24 hours (in words) [4] | increase in the relative intensity of the expression level of GLUT2 compared to control [5] | decrease in the relative intensity of the expression level of GLUT2 compared to control [5] |
| --- | --- | --- | --- | --- | --- | --- |
| NCCCC[C@H](N)C(=O)O [lysine] | about 100% | did not show a significant difference | rose slightly | reduced cell viability | ~90% |  |
| N=C(N)NCCC[C@H](N)C(=O)O [arginine] | about 52% | did not show a significant difference | rose slightly | reduced cell viability | ~30% |  |
| CC(C)(O)CC(=O)O [HMB, beta-hydroxy-beta-methylbutyrate] | about 31% | did not show a significant difference | rose slightly | reduced cell viability |  | ~23% |

Source: patent US20240065997A1, “Methods and Compositions for Improving Insulin Production and Secretion” (ABBOTT LABORATORIES, priority 2021, published 2024)
